The target of one test is T1, CCR2 (Homo sapiens, UniProt P41597).
T1 sequence (P41597 1-360 isoform P41597-2): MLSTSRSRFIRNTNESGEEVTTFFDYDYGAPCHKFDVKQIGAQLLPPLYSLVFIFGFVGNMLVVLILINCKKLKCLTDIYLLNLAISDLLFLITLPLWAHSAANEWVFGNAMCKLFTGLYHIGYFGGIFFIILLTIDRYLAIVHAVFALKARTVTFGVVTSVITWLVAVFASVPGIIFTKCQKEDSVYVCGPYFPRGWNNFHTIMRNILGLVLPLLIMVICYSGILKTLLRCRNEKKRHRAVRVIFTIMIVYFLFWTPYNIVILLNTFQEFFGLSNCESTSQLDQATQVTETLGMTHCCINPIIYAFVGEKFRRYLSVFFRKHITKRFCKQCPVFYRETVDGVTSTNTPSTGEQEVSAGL

The subject of test [1] is THP-1 cells.
Test [2] concerns THP-1 cells. The test can be described thus: MCP-1 Induced Chemotaxis in THP-1 Cells. The test is classed as cell-based. The following applies: THP-1 cells, MCP-1 0.01 μg/mL, 3 hours, read-out: Inhibition of MCP-1 Induced Chemotaxis IC50.
Where [3] appears, read: Homo sapiens, THP-1, read-out: Inhibition of MCP-1 Induced Calcium Ion Influx IC50.

Read-outs that look alike come from different tables or passages of the source.

One may read the IC50 as the point on the concentration scale where inhibition reaches its midpoint. As usually defined, the inhibition is the change of the read-out against control, counted positive when it falls.

Turning to `COc1ccc(C2CCN(C(CO)C3CCN(C(=O)/C=C/c4cc(F)c(F)c(F)c4)CC3)CC2)cc1` (stereo not drawn) [Cpd 158, (2E)-1-(4-{2-hydroxy-1-[4-(4-methoxy-phenyl)-piperidin-1-yl]-ethyl}-piperidin-1-yl)-3-(3,4,5-trifluoro-phenyl)-propenone], the 50% inhibitory concentration (IC50) against CCR2 came out at 0.1 µM; in the test with THP-1 cells [1] (setting [3]) it was 0.14 µM; in the test with THP-1 cells [2] (Homo sapiens), 0.1 µM.
`O=C(/C=C/c1cc(F)c(F)c(F)c1)N1CCC(C(CO)N2CCC(c3c[nH]c4ccc(F)cc34)CC2)CC1` (stereo not drawn) [Cpd 170, (2E)-1-(4-{1-[4-(5-fluoro-1H-indol-3-yl)-piperidin-1-yl]-2-hydroxy-ethyl}-piperidin-1-yl)-3-(3,4,5-trifluoro-phenyl)-propenone]: the half-maximal inhibitory concentration (IC50) at CCR2 (Inhibition of MCP-1 Binding IC50, 125I labeled MCP-1 binding to CCR2, THP-1 cells) turned out to be 0.04 µM; in the test on THP-1 cells [1] (Homo sapiens, THP-1, read-out: Inhibition of MCP-1 Induced Calcium Ion Influx IC50, THP-1 cells, 0.2 μM MCP-1, FLIPR), 0.01 µM; in the test with THP-1 cells [2] (Homo sapiens, THP-1, 3 h), 0.009 µM.
With `O=C(C=Cc1ccc(F)c(F)c1)N1CCC(C(CO)N2CCC(c3c[nH]c4ccc(F)cc34)CC2)CC1` (stereo not drawn) [Cpd 254, (2E)-3-(3,4-difluoro-phenyl)-1-(4-{1-[4-(5-fluoro-1H-indol-3-yl)-piperidin-1-yl]-2-hydroxy-ethyl}-piperidin-1-yl)-propenone], the IC50 was determined as 0.12 µM against CCR2, 0.03 µM in the test with THP-1 cells [1] (setting [3]) and 0.02 µM in the test on THP-1 cells [2] (Homo sapiens).
In the case of `Cc1ccc(NC(=O)N2CCC(C(C(=O)O)N3CCC(c4c[nH]c5ccccc45)CC3)CC2)cc1F` (stereo not drawn) [Cpd 105, [1-(3-fluoro-4-methyl-phenylcarbamoyl)-piperidin-4-yl]-[4-(1H-indol-3-yl)-piperidin-1-yl]-acetic acid], the IC50 came to 0.09 µM against CCR2, 0.13 µM in the test with THP-1 cells [1] (setting [3]) and 0.01 µM in the test with THP-1 cells [2] (Homo sapiens).
For the compound `COc1ccc(C2CCN(C(CO)C3CCN(C(=O)/C=C/c4ccc(F)c(Br)c4)CC3)CC2)cc1` (stereo not drawn) [Cpd 161, (2E)-3-(3-bromo-4-fluoro-phenyl)-1-(4-{2-hydroxy-1-[4-(4-methoxy-phenyl)-piperidin-1-yl]-ethyl}-piperidin-1-yl)-propenone], the figures for the 50% inhibitory concentration (IC50) against CCR2, in the test on THP-1 cells [1] (setting [3]) and in the test on THP-1 cells [2] (Homo sapiens) were 0.05 µM, 0.18 µM and 0.09 µM, respectively.
For the compound `O=C(/C=C/c1cc(F)c(F)c(F)c1)N1CCC(C(CO)N2CCC(c3c[nH]c4ccccc34)CC2)CC1` (stereo not drawn) [Cpd 112, (2E)-1-(4-{2-hydroxy-1-[4-(1H-indol-3-yl)-piperidin-1-yl]-ethyl}-piperidin-1-yl)-3-(3,4,5-trifluoro-phenyl)-propenone], the IC50 worked out at 0.004 µM at CCR2, 0.0006 µM with THP-1 cells [1] (setting [3]) and 0.004 µM in the test with THP-1 cells [2] (Homo sapiens).
As to `COc1cccc2c(C3CCN(C(CO)C4CCN(C(=O)/C=C/c5cc(F)c(F)c(F)c5)CC4)CC3)c[nH]c12` (stereo not drawn) [Cpd 133, (2E)-1-(4-{2-hydroxy-1-[4-(7-methoxy-1H-indol-3-yl)-piperidin-1-yl]-ethyl}-piperidin-1-yl)-3-(3,4,5-trifluoro-phenyl)-propenone], the half-inhibitory concentration (IC50) is 0.01 µM against CCR2, 0.0008 µM in the test on THP-1 cells [1] (setting [3]) and 0.04 µM in the test with THP-1 cells [2] (Homo sapiens).
`COc1ccc(C2CCN(C(CO)C3CCN(C(=O)/C=C/c4ccc(F)c(F)c4)CC3)CC2)cc1` (stereo not drawn) [Cpd 138, (2E)-3-(3,4-difluoro-phenyl)-1-(4-{2-hydroxy-1-[4-(4-methoxy-phenyl)-piperidin-1-yl]-ethyl}-piperidin-1-yl)-propenone]: the IC50 at CCR2 worked out at 0.172 µM; with THP-1 cells [1] (setting [3]) it was 1.29 µM; in the test with THP-1 cells [2] (Homo sapiens), 0.217 µM.
Take `COc1ccccc1C1CCN(C(CO)C2CCN(C(=O)/C=C/c3cc(F)cc(F)c3)CC2)CC1` (stereo not drawn) [Cpd 203, (2E)-3-(3,5-difluoro-phenyl)-1-(4-{2-hydroxy-1-[4-(2-methoxy-phenyl)-piperidin-1-yl]-ethyl}-piperidin-1-yl)-propenone]: the 50% inhibitory concentration (IC50) at CCR2 worked out at 0.51 µM; in the test on THP-1 cells [1] (setting [3]), 5 µM; with THP-1 cells [2] (Homo sapiens) it was 1.2 µM.
With `COc1ccc(C2CCN(C(CO)C3CCN(C(=O)/C=C/c4ccc(Cl)c(Cl)c4)CC3)CC2)cc1` (stereo not drawn) [Cpd 139, (2E)-3-(3,4-dichloro-phenyl)-1-(4-{2-hydroxy-1-[4-(4-methoxy-phenyl)-piperidin-1-yl]-ethyl}-piperidin-1-yl)-propenone], the concentration for half-maximal inhibition (IC50) against CCR2 was determined as 0.02 µM; in the test with THP-1 cells [1] (setting [3]), 0.04 µM; in the test on THP-1 cells [2] (Homo sapiens), 0.05 µM.
As to `Cc1cc(NC(=O)N2CCC(C(C(=O)O)N3CCC(c4c[nH]c5ccccc45)CC3)CC2)ccc1Br` (stereo not drawn) [Cpd 101, [1-(4-bromo-3-methyl-phenylcarbamoyl)-piperidin-4-yl]-[4-(1H-indol-3-yl)-piperidin-1-yl]-acetic acid], the results for the half-inhibitory concentration (IC50) against CCR2, with THP-1 cells [1] (setting [3]) and in the test with THP-1 cells [2] (Homo sapiens) were 0.02 µM, 0.13 µM and 0.14 µM, respectively.
Regarding `O=C(/C=C/c1cc(F)c(F)c(F)c1)N1CCC(C(CO)N2CCC(c3ccncc3)CC2)CC1` (stereo not drawn) [Cpd 183, (2E)-1-{4-[2-hydroxy-1-(3,4,5,6-tetrahydro-2H-[4,4′]bipyridinyl-1-yl)-ethyl]-piperidin-1-yl}-3-(3,4,5-trifluoro-phenyl)-propenone], the figures for the IC50 against CCR2, with THP-1 cells [1] (setting [3]) and in the test on THP-1 cells [2] (Homo sapiens) were 0.47 µM, 9.25 µM and 0.4 µM, respectively.
On to `O=C(/C=C/c1ccc(Cl)c(Cl)c1)N1CCC(C(CO)N2CCC(c3cc[nH]n3)CC2)CC1` (stereo not drawn) [Cpd 155, (2E)-3-(3,4-dichloro-phenyl)-1-(4-{2-hydroxy-1-[4-(1H-pyrazol-3-yl)-piperidin-1-yl]-ethyl}-piperidin-1-yl)-propenone], for which the concentration for half-maximal inhibition (IC50) at CCR2 came to 0.207 µM; in the test with THP-1 cells [1] (setting [3]) it was 0.94 µM; in the test with THP-1 cells [2] (Homo sapiens), 0.13 µM.
For `O=C(/C=C/c1cc(F)cc(F)c1)N1CCC(C(CO)N2CCC(c3n[nH]c4ccccc34)CC2)CC1` (stereo not drawn) [Cpd 173, (2E)-3-(3,5-difluoro-phenyl)-1-(4-{2-hydroxy-1-[4-(1H-indazol-3-yl)-piperidin-1-yl]-ethyl}-piperidin-1-yl)-propenone], the IC50 turned out to be 0.43 µM on CCR2 (read-out: Inhibition of MCP-1 Binding IC50, 125I labeled MCP-1 binding to CCR2, THP-1 cells) and 0.13 µM in the test on THP-1 cells [2]. Besides, the “Inhibition of MCP-1 Induced Calcium Ion Influx, percent inhibition” value in the test with THP-1 cells [1] (test concentration of 25 μM, IC50 not obtained) worked out at 21%.
Take `O=C(/C=C/c1cc(F)c(F)c(F)c1)N1CCC(C(CO)N2CCC(c3cc[nH]n3)CC2)CC1` (stereo not drawn) [Cpd 156, (2E)-1-(4-{2-hydroxy-1-[4-(1H-pyrazol-3-yl)-piperidin-1-yl]-ethyl}-piperidin-1-yl)-3-(3,4,5-trifluoro-phenyl)-propenone]: the half-maximal inhibitory concentration (IC50) on CCR2 worked out at 0.08 µM; in the test with THP-1 cells [2] (Homo sapiens), 0.12 µM. Also, the inhibition at 25 µM with THP-1 cells [1] (Homo sapiens, THP-1, read-out: Inhibition of MCP-1 Induced Calcium Ion Influx, percent inhibition) is 50%.
`O=C(/C=C/c1cc(F)c(F)c(F)c1)N1CCC(C(CO)N2CCC(c3ccc(F)cc3)CC2)CC1` (stereo not drawn) [Cpd 193]: the results for the concentration for half-maximal inhibition (IC50) against CCR2, in the test with THP-1 cells [1] (setting [3]) and with THP-1 cells [2] (Homo sapiens) were 0.14 µM, 0.14 µM and 1.3 µM, respectively.
With `O=C(c1cc2cc(Cl)ccc2o1)N1CCC(C(CO)N2CCC(c3c[nH]c4ccccc34)CC2)CC1` (stereo not drawn) [Cpd 157, (5-chloro-benzofuran-2-yl)-(4-{2-hydroxy-1-[4-(1H-indol-3-yl)-piperidin-1-yl]-ethyl}-piperidin-1-yl)-methanone], the IC50 against CCR2 amounted to 0.44 µM; in the test on THP-1 cells [1] (setting [3]), 0.32 µM; with THP-1 cells [2] (Homo sapiens), 0.46 µM.
For `O=C(O)C(C1CCN(C(=O)/C=C/c2cc(F)c(F)c(F)c2)CC1)N1CCC(c2c[nH]c3cccnc23)CC1` (stereo not drawn) [Cpd 207, [4-(1H-pyrrolo[3,2-b]pyridin-3-yl)-piperidin-1-yl]-{1-[(2E)-3-(3,4,5-trifluoro-phenyl)-acryloyl]-piperidin-4-yl}-acetic acid], the IC50 on CCR2 is 0.21 µM; with THP-1 cells [1] (setting [3]), 0.11 µM; in the test with THP-1 cells [2] (Homo sapiens), 0.19 µM.
